Assay results from US4652573A, “Calcium antagonist N-hetero ester 1,4-dihydropyridines” (Nelson Research & Development Co., priority 1985, dated 1987).

Columns and labels:
[1] = tested on: spontaneous hypertensive rats (SHR); assay: Hypotensive Activity: systolic arterial blood pressure, indirect tail cuff method, oral administration; type: in vivo, rat; conditions: oral 10 m mol/Kg in polyethylene glycol, positive = fall; for Mean Change in Blood Pressure (Pressure before Administration minus pressure after Administration mm Hg) 10 min: 10 min after administration; for Mean Change in Blood Pressure (Pressure before Administration minus pressure after Administration mm Hg) 20 min: 20 min after administration; for Mean Change in Blood Pressure (Pressure before Administration minus pressure after Administration mm Hg) 30 min: 30 min after administration; for Mean Change in Blood Pressure (Pressure before Administration minus pressure after Administration mm Hg) 60 min: 60 min after administration; for Mean Change in Blood Pressure (Pressure before Administration minus pressure after Administration mm Hg) 90 min: 90 min after administration; for Mean Change in Blood Pressure (Pressure before Administration minus pressure after Administration mm Hg) 120 min: 120 min after administration
Description: Systolic arterial blood pressure was measured with the indirect tail cuff method in spontaneous hypertensive rats (SHR). The change in baseline pressure (170-210 mm Hg) was recorded at various time points following oral administration of 10 m mol/Kg of the test compound in polyethylene glycol.

[2] = molecular target: T1, DHP Site of the Calcium Channel (Oryctolagus cuniculus, UniProt P07293); assay: Binding Assay for Drugs Acting at the DHP Site of the Calcium Channel (3H-nitrendipine displacement, washed rabbit skeletal muscle membranes); conditions: read-out: KI (moles)
T1 construct: Washed rabbit skeletal muscle membranes; from tissue; host or cells: rabbit skeletal muscle, washed membranes (fraction 2-8×)
Description: A. Binding Assay for Drugs Acting at the DHP Site of the Calcium Channel.
The assay was carried out as described by Fairhurst et al., Life Sciences, 32, 1331 (1983). Washed rabbit skeletal muscle membranes (fraction 2-8×) were incubated for 30 minutes at 25° C. in 2 ml final volume of medium containing 12.5 mM HEPES buffer pH 7.4 and 0.5×10^-9 M ^3 H-nitrendipine having a specific activity of approximately 17 Ci/m mol.
The incubation tubes were rapidly chilled in ice and the contents filtered through Whatman GF/B filters on a Millipore manifold, and the filters washed with 2×10 ml ice-cold HEPES buffer. The filters were placed in scintillation counting vials with 8 ml of Cytoscint cocktail, disrupted mechanically by shaking for 30 minutes and counted.
Drugs which interact at the DHP site will reduce this specific binding in a dose-dependent manner. The assays for the compounds of this invention were made with logarithmically spaced concentrations, the data were plotted on a probit-concentration plot, and the IC50 read off. The KI of the drug was calculated by standard techniques.

T1 sequence (P07293 whole entry): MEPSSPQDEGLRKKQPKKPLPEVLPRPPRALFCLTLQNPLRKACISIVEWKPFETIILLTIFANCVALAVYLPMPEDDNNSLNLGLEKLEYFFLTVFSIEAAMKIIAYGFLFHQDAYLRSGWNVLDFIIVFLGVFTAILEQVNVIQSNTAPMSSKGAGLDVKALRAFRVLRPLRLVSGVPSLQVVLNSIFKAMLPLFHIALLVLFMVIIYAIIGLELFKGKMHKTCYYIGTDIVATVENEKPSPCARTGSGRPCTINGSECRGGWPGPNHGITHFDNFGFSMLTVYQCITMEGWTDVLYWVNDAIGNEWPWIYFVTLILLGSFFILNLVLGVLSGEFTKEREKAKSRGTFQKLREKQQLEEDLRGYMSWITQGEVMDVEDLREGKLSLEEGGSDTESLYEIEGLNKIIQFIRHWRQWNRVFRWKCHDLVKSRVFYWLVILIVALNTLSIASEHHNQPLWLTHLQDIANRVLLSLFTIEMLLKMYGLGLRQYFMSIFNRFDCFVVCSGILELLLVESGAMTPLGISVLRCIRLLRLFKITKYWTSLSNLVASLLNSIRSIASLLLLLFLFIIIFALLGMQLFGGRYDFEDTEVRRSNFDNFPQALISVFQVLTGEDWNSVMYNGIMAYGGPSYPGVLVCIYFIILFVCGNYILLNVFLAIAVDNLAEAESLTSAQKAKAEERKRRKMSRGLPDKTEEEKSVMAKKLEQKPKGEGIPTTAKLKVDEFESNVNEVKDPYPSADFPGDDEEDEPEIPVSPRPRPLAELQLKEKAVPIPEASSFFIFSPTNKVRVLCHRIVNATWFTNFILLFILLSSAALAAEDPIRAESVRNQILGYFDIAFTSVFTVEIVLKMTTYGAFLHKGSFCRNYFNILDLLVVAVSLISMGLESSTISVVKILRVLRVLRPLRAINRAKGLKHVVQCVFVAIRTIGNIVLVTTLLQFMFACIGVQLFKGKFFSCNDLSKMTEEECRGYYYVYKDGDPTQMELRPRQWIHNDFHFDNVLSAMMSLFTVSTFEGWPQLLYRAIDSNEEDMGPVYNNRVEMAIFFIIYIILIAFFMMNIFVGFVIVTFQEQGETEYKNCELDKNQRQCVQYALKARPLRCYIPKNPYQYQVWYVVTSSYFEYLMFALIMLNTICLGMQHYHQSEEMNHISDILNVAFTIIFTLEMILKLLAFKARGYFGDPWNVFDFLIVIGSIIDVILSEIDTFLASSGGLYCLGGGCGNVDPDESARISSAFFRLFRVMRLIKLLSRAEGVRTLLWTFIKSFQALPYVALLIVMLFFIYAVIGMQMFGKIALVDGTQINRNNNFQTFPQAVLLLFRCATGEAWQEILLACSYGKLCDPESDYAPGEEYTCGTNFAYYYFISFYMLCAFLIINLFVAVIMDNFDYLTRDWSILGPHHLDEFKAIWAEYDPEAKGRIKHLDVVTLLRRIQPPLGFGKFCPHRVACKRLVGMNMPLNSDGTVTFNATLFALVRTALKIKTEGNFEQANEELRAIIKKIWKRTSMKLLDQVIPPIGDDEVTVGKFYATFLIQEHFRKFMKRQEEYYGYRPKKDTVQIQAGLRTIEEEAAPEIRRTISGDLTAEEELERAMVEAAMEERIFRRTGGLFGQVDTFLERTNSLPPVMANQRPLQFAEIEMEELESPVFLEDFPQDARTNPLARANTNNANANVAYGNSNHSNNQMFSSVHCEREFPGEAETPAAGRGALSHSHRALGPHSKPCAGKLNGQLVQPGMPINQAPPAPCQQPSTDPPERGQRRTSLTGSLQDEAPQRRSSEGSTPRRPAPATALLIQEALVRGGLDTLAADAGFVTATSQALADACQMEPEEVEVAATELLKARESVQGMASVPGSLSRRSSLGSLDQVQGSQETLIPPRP

With `COC(=O)C1=C(C)NC(C)=C(C(=O)OCCN2C(=O)c3ccccc3C2=O)C1c1cccc(C)c1` (stereo not drawn) [Example 1, 2,6-dimethyl-3-(2-phthalimidocarbethoxy)-4-(3-methylphenyl)-5-carbomethoxy-1,4-dihydropyridine] the “Mean Change in Blood Pressure (Pressure before Administration minus pressure after Administration mm Hg) 10 min” value [1] was 17 mm Hg, the “Mean Change in Blood Pressure (Pressure before Administration minus pressure after Administration mm Hg) 20 min” value [1] was 10 mm Hg and the “Mean Change in Blood Pressure (Pressure before Administration minus pressure after Administration mm Hg) 30 min” value [1] was 4 mm Hg. For the same compound, the “Mean Change in Blood Pressure (Pressure before Administration minus pressure after Administration mm Hg) 60 min” value [1] was -2 mm Hg, the “Mean Change in Blood Pressure (Pressure before Administration minus pressure after Administration mm Hg) 90 min” value [1] was 5 mm Hg and the “Mean Change in Blood Pressure (Pressure before Administration minus pressure after Administration mm Hg) 120 min” value [1] was -4 mm Hg. It also gave a Ki [2] of 19.7 nM.
With `COC(=O)C1=C(C)NC(C)=C(C(=O)OCCN2C(=O)c3ccccc3C2=O)C1c1cccc([N+](=O)[O-])c1` (stereo not drawn) [Example 2, 2,6-dimethyl-3-(2-phthalimidocarbethoxy)-4-(3-nitrophenyl)-5-carbomethoxy-1,4-dihydropyridine] the “Mean Change in Blood Pressure (Pressure before Administration minus pressure after Administration mm Hg) 10 min” value [1] was 9 mm Hg, the “Mean Change in Blood Pressure (Pressure before Administration minus pressure after Administration mm Hg) 20 min” value [1] was 10 mm Hg and the “Mean Change in Blood Pressure (Pressure before Administration minus pressure after Administration mm Hg) 30 min” value [1] was 10 mm Hg. The “Mean Change in Blood Pressure (Pressure before Administration minus pressure after Administration mm Hg) 60 min” value [1] was 6 mm Hg, the “Mean Change in Blood Pressure (Pressure before Administration minus pressure after Administration mm Hg) 90 min” value [1] was 0 mm Hg and the “Mean Change in Blood Pressure (Pressure before Administration minus pressure after Administration mm Hg) 120 min” value [1] was 0 mm Hg. The Ki [2] was 0.7 nM.
In the case of `COC(=O)C1=C(C)NC(C)=C(C(=O)OCCN2C(=O)c3ccccc3C2=O)C1c1cccc(C(F)(F)F)c1` (stereo not drawn) [Example 3, 2-6-dimethyl-3-(2-phthalimidocarbethoxy)-4-(3-trifluoromethylphenyl)-5-carbomethoxy-1,4-dihydropyridine], the Ki [2] is reported as 48 nM.
`CC1=C(C(=O)OCCN2C(=O)c3ccccc3C2=O)C(c2cccc([N+](=O)[O-])c2)C(C(=O)OCCN2C(=O)c3ccccc3C2=O)=C(C)N1` [Example 4, 2,6-dimethyl-3,5-di(2-phthalimidocarbethoxy)-4-(3-nitrophenyl)-1,4-dihydropyridine] was tested, and the “Mean Change in Blood Pressure (Pressure before Administration minus pressure after Administration mm Hg) 10 min” value [1] was 9 mm Hg, the “Mean Change in Blood Pressure (Pressure before Administration minus pressure after Administration mm Hg) 20 min” value [1] was 8 mm Hg and the “Mean Change in Blood Pressure (Pressure before Administration minus pressure after Administration mm Hg) 30 min” value [1] was 14 mm Hg. The “Mean Change in Blood Pressure (Pressure before Administration minus pressure after Administration mm Hg) 60 min” value [1] was 11 mm Hg, the “Mean Change in Blood Pressure (Pressure before Administration minus pressure after Administration mm Hg) 90 min” value [1] was 14 mm Hg and the “Mean Change in Blood Pressure (Pressure before Administration minus pressure after Administration mm Hg) 120 min” value [1] was 10 mm Hg. The Ki [2] was 2.5 nM.
`COC(=O)C1=C(C)NC(C)=C(C(=O)OCCCN2C(=O)c3ccccc3C2=O)C1c1cccc([N+](=O)[O-])c1` (stereo not drawn) [Example 5] was tested, and the “Mean Change in Blood Pressure (Pressure before Administration minus pressure after Administration mm Hg) 10 min” value [1] was -5 mm Hg, the “Mean Change in Blood Pressure (Pressure before Administration minus pressure after Administration mm Hg) 20 min” value [1] was -14 mm Hg and the “Mean Change in Blood Pressure (Pressure before Administration minus pressure after Administration mm Hg) 30 min” value [1] was -10 mm Hg. The “Mean Change in Blood Pressure (Pressure before Administration minus pressure after Administration mm Hg) 60 min” value [1] was -6 mm Hg, the “Mean Change in Blood Pressure (Pressure before Administration minus pressure after Administration mm Hg) 90 min” value [1] was -6 mm Hg and the “Mean Change in Blood Pressure (Pressure before Administration minus pressure after Administration mm Hg) 120 min” value [1] was -5 mm Hg. For the same compound, the Ki [2] was 4.8 nM.
For `COC(=O)C1=C(C)NC(C)=C(C(=O)OCCCCCCN2C(=O)c3ccccc3C2=O)C1c1cccc([N+](=O)[O-])c1` (stereo not drawn) [Example 6, 2,6-Dimethyl-3-(6-phthalimidocarbohexoxy)-4-(3-nitrophenyl)-5-carbomethoxy-1,4-dihydropyridine], the “Mean Change in Blood Pressure (Pressure before Administration minus pressure after Administration mm Hg) 10 min” value [1] was 18 mm Hg, the “Mean Change in Blood Pressure (Pressure before Administration minus pressure after Administration mm Hg) 20 min” value [1] was 10 mm Hg and the “Mean Change in Blood Pressure (Pressure before Administration minus pressure after Administration mm Hg) 30 min” value [1] was 12 mm Hg. The “Mean Change in Blood Pressure (Pressure before Administration minus pressure after Administration mm Hg) 60 min” value [1] was 14 mm Hg, the “Mean Change in Blood Pressure (Pressure before Administration minus pressure after Administration mm Hg) 90 min” value [1] was 2 mm Hg and the “Mean Change in Blood Pressure (Pressure before Administration minus pressure after Administration mm Hg) 120 min” value [1] was 0 mm Hg. The Ki [2] was 1.9 nM.
With `COC(=O)C1=C(C)NC(C)=C(C(=O)OCCN2Cc3ccccc3C2=O)C1c1cccc([N+](=O)[O-])c1` (stereo not drawn) [Example 7, 2,6-Dimethyl-3-(2-phthalimidinocarbethoxy)-4-(3-nitrophenyl)-5-carbomethoxy-1,4-dihydropyridine] the “Mean Change in Blood Pressure (Pressure before Administration minus pressure after Administration mm Hg) 10 min” value [1] was 14 mm Hg, the “Mean Change in Blood Pressure (Pressure before Administration minus pressure after Administration mm Hg) 20 min” value [1] was 19 mm Hg and the “Mean Change in Blood Pressure (Pressure before Administration minus pressure after Administration mm Hg) 30 min” value [1] was 10 mm Hg. The “Mean Change in Blood Pressure (Pressure before Administration minus pressure after Administration mm Hg) 60 min” value [1] was 10 mm Hg, the “Mean Change in Blood Pressure (Pressure before Administration minus pressure after Administration mm Hg) 90 min” value [1] was 20 mm Hg and the “Mean Change in Blood Pressure (Pressure before Administration minus pressure after Administration mm Hg) 120 min” value [1] was 19 mm Hg. For the same compound, the Ki [2] was 20 nM.
For `COC(=O)C1=C(C)NC(C)=C(C(=O)OCCN2Cc3ccccc3C2)C1c1cccc([N+](=O)[O-])c1` (stereo not drawn) [Example 8, 2,6-Dimethyl-3-(2-isoindolinylcarbethoxy)-4-(3-nitrophenyl)-5-carbomethoxy-1,4-dihydropyridine], the “Mean Change in Blood Pressure (Pressure before Administration minus pressure after Administration mm Hg) 10 min” value [1] was 36 mm Hg, the “Mean Change in Blood Pressure (Pressure before Administration minus pressure after Administration mm Hg) 20 min” value [1] was 30 mm Hg and the “Mean Change in Blood Pressure (Pressure before Administration minus pressure after Administration mm Hg) 30 min” value [1] was 32 mm Hg. The “Mean Change in Blood Pressure (Pressure before Administration minus pressure after Administration mm Hg) 60 min” value [1] was 16 mm Hg, the “Mean Change in Blood Pressure (Pressure before Administration minus pressure after Administration mm Hg) 90 min” value [1] was 4 mm Hg and the “Mean Change in Blood Pressure (Pressure before Administration minus pressure after Administration mm Hg) 120 min” value [1] was 2 mm Hg. The Ki [2] was 3.5 nM.
In the case of `COC(=O)C1=C(C)NC(C)=C(C(=O)OCCN2C(=O)CCC2=O)C1c1cccc([N+](=O)[O-])c1` (stereo not drawn) [Example 9, 2,6-Dimethyl-3-(2-succimimidocarbethoxy)-4-(3-nitrophenyl)-5-carbomethoxy-1,4-dihydropyridine], the “Mean Change in Blood Pressure (Pressure before Administration minus pressure after Administration mm Hg) 10 min” value [1] is reported as 36 mm Hg, the “Mean Change in Blood Pressure (Pressure before Administration minus pressure after Administration mm Hg) 20 min” value [1] is reported as 10 mm Hg and the “Mean Change in Blood Pressure (Pressure before Administration minus pressure after Administration mm Hg) 30 min” value [1] is reported as 5 mm Hg. For the same compound, the “Mean Change in Blood Pressure (Pressure before Administration minus pressure after Administration mm Hg) 60 min” value [1] was 3 mm Hg, the “Mean Change in Blood Pressure (Pressure before Administration minus pressure after Administration mm Hg) 90 min” value [1] was 19 mm Hg and the “Mean Change in Blood Pressure (Pressure before Administration minus pressure after Administration mm Hg) 120 min” value [1] was 11 mm Hg. For the same compound, the Ki [2] was 150 nM.
In the case of `COC(=O)C1=C(C)NC(C)=C(C(=O)OCCN2CCCC2=O)C1c1cccc([N+](=O)[O-])c1` (stereo not drawn) [Example 10, 2,6-Dimethyl-3-[2-(2-oxopyrrolidino)carbethoxy]-4-(3-nitrophenyl)-5-carbomethoxy-1,4-dihydropyridine], the “Mean Change in Blood Pressure (Pressure before Administration minus pressure after Administration mm Hg) 10 min” value [1] is reported as -17 mm Hg, the “Mean Change in Blood Pressure (Pressure before Administration minus pressure after Administration mm Hg) 20 min” value [1] is reported as -5 mm Hg and the “Mean Change in Blood Pressure (Pressure before Administration minus pressure after Administration mm Hg) 30 min” value [1] is reported as 11 mm Hg. The “Mean Change in Blood Pressure (Pressure before Administration minus pressure after Administration mm Hg) 60 min” value [1] was 7 mm Hg, the “Mean Change in Blood Pressure (Pressure before Administration minus pressure after Administration mm Hg) 90 min” value [1] was 6 mm Hg and the “Mean Change in Blood Pressure (Pressure before Administration minus pressure after Administration mm Hg) 120 min” value [1] was 7 mm Hg. It also gave a Ki [2] of 270 nM.
Compound `CC1=C(C(=O)OCCn2c(C)ccc2C)C(c2cccc([N+](=O)[O-])c2)C(C(=O)OCCn2c(C)ccc2C)=C(C)N1` [Example 12, 2,6-Dimethyl-3,5-(2,5-dimethylpyrrolylcarbethoxy)-4-(3-nitrophenyl)-1,4-dihydropyridine] has a Ki [2] of 2.5 nM.
For `COC(=O)C1=C(C)NC(C)=C(C(=O)OCCN(C)Cc2ccccc2)C1c1cccc([N+](=O)[O-])c1` (stereo not drawn) [Nicardipine, nicardipine, reference compound], the Ki [2] was 1.1 nM.
With `COC(=O)C1=C(C)NC(C)=C(C(=O)OC)C1c1ccccc1[N+](=O)[O-]` [Nifedipine, nifedipine, reference compound] the “Mean Change in Blood Pressure (Pressure before Administration minus pressure after Administration mm Hg) 10 min” value [1] was 37 mm Hg, the “Mean Change in Blood Pressure (Pressure before Administration minus pressure after Administration mm Hg) 20 min” value [1] was 36 mm Hg and the “Mean Change in Blood Pressure (Pressure before Administration minus pressure after Administration mm Hg) 30 min” value [1] was 20 mm Hg. The “Mean Change in Blood Pressure (Pressure before Administration minus pressure after Administration mm Hg) 60 min” value [1] was 15 mm Hg, the “Mean Change in Blood Pressure (Pressure before Administration minus pressure after Administration mm Hg) 90 min” value [1] was 4 mm Hg and the “Mean Change in Blood Pressure (Pressure before Administration minus pressure after Administration mm Hg) 120 min” value [1] was 4 mm Hg.
